# According to patent publication US20210353593A1 (Chinook Therapeutics, Inc., priority 2019, published 2021):
# Like-named read-outs stand apart in the source and are kept apart here.
# Experiments:
# [1] = system: primary human renal mesangial cells (HRMCs); assay: ET-1 induced proliferation (BrdU) of primary human renal mesangial cells; type: cell-based; conditions: 10 ng/mL ET-1, read-out: IC50, ET-1 induced HRMC proliferation
# [2] = system: kidney tissue of g-ddY mice
# [3] = system: IL-6 production in primary human mesangial cells; assay: ET-1 induced IL-6 production (ELISA) in primary human renal mesangial cells; type: cell-based; conditions: 72 hours; 10 ng/mL ET-1; read-out: IC50, ET-1 stimulated IL-6 production in HRMCs
# [4] = 10 mg/kg/day vs untreated control
# [5] = 20 mg/kg/day vs untreated control
# [6] = 30 mg/kg/day vs untreated control
smiles,measurement,setting,value
"CCCCN(CCCC)C(=O)CN1C[C@H](c2ccc3c(c2)OCO3)[C@@H](C(=O)O)[C@@H]1c1ccc(OC)cc1 [Atrasentan, (2R,3R,4S)-4-(1,3-benzodioxol-5-yl)-1-[2-(dibutylamino)-2-oxoethyl]-2-(4-methoxyphenyl)pyrrolidine-3-carboxylic acid]",IC50,[1]; 48 hours,4.2 nM
same,IC50,"[1]; Homo sapiens, Mesangial cell, 48 h",~5.1 nM
same,IC50,"[1]; Homo sapiens, Mesangial cell, 72 h",~50.8 nM
same,number of downregulated genes,[2]; 10 mg/kg/day versus control,15 genes
same,number of upregulated genes,[2]; 10 mg/kg/day versus control,25 genes
same,Acnat2 logFC,[2]; 10 mg/kg/day vs control,0.9174
same,Apoc1 logFC,[2]; 10 mg/kg/day vs control,−1.929
same,Arnt1 logFC,[2]; 10 mg/kg/day vs control,1.039
same,Asl logFC,[2]; 10 mg/kg/day vs control,0.707
same,Bckdha logFC,[2]; 10 mg/kg/day vs control,0.5492
same,Bmp6 logFC,[2]; 10 mg/kg/day vs control,0.7141
same,Ccn1 logFC,[2]; 10 mg/kg/day vs control,−1.087
same,Ccn2 logFC,[2]; 10 mg/kg/day vs control,−0.5379
same,Cish logFC,[2]; 10 mg/kg/day vs control,−1.301
same,Cryl1 logFC,[2]; 10 mg/kg/day vs control,0.5206
same,Dbp logFC,[2]; 10 mg/kg/day vs control,−1.205
same,Dpep1 logFC,[2]; 10 mg/kg/day vs control,0.6476
same,Ethe1 logFC,[2]; 10 mg/kg/day vs control,0.941
same,Filipl1 logFC,[2]; 10 mg/kg/day vs control,−0.8186
same,Frmd4b logFC,[2]; 10 mg/kg/day vs control,0.6863
same,Gapdh logFC,[2]; 10 mg/kg/day vs control,0.6257
same,Gem logFC,[2]; 10 mg/kg/day vs control,−1.508
same,Gm15910 logFC,[2]; 10 mg/kg/day vs control,−1.397
same,Hacl1 logFC,[2]; 10 mg/kg/day vs control,0.6805
same,Igf1 logFC,[2]; 10 mg/kg/day vs control,−0.8723
same,Mapt logFC,[2]; 10 mg/kg/day vs control,0.7035
same,Mef2c logFC,[2]; 10 mg/kg/day vs control,−0.6217
same,Mmd logFC,[2]; 10 mg/kg/day vs control,−1.012
same,Mnt logFC,[2]; 10 mg/kg/day vs control,0.6669
same,Ndrg1 logFC,[2]; 10 mg/kg/day vs control,0.9887
same,Npas2 logFC,[2]; 10 mg/kg/day vs control,1.415
same,Nr4a1 logFC,[2]; 10 mg/kg/day vs control,−1.525
same,Pde3b logFC,[2]; 10 mg/kg/day vs control,−0.6611
same,Pdzd3 logFC,[2]; 10 mg/kg/day vs control,0.7268
same,Pdzk1ip1 logFC,[2]; 10 mg/kg/day vs control,0.5308
same,Pfkffb3 logFC,[2]; 10 mg/kg/day vs control,−1.166
same,S100g logFC,[2]; 10 mg/kg/day vs control,0.7546
same,Sirt3 logFC,[2]; 10 mg/kg/day vs control,0.7376
same,Slc5a2 logFC,[2]; 10 mg/kg/day vs control,0.7478
same,Slc6a19 logFC,[2]; 10 mg/kg/day vs control,0.8567
same,Slc7a9 logFC,[2]; 10 mg/kg/day vs control,0.5456
same,Slc16a1 logFC,[2]; 10 mg/kg/day vs control,0.9808
same,Slc19a1 logFC,[2]; 10 mg/kg/day vs control,0.6451
same,Slc34a3 logFC,[2]; 10 mg/kg/day vs control,0.8923
same,Zeb2 logFC,[2]; 10 mg/kg/day vs control,−0.5638
same,ET1 gene signature genes downregulated,[2]; [4],"Grk5, Mllt3, Klf2, Pparg, Hgf, Edn1, Fos, Ptgs2, and IL-1b"
same,ET1 gene signature genes upregulated,[2]; [4],"Ccnd1, Ppara, Agt, Map2k2 and Hoxa9"
same,number of downregulated genes,[2]; 20 mg/kg/day versus control,281 genes
same,number of upregulated genes,[2]; 20 mg/kg/day versus control,214 genes
same,1700101I11Rik logFC,[2]; 20 mg/kg/day vs control,1.658
same,A530016L24Rik logFC,[2]; 20 mg/kg/day vs control,−3.027
same,Abcd2 logFC,[2]; 20 mg/kg/day vs control,−2.686
same,Adcy2 logFC,[2]; 20 mg/kg/day vs control,−2.484
same,Ankef1 logFC,[2]; 20 mg/kg/day vs control,−3.382
same,Apol6 logFC,[2]; 20 mg/kg/day vs control,−3.616
same,Aspdh logFC,[2]; 20 mg/kg/day vs control,0.9646
same,Bche logFC,[2]; 20 mg/kg/day vs control,−4.062
same,C5ar2 logFC,[2]; 20 mg/kg/day vs control,−4.271
same,Cadm3 logFC,[2]; 20 mg/kg/day vs control,−2.439
same,Ccl8 logFC,[2]; 20 mg/kg/day vs control,−2.999
same,Ccl20 logFC,[2]; 20 mg/kg/day vs control,−3.563
same,Clec2h logFC,[2]; 20 mg/kg/day vs control,1.078
same,Cndp1 logFC,[2]; 20 mg/kg/day vs control,0.9373
same,Dio2 logFC,[2]; 20 mg/kg/day vs control,−3.823
same,Dnase1 logFC,[2]; 20 mg/kg/day vs control,1.086
same,Ebf2 logFC,[2]; 20 mg/kg/day vs control,−3.715
same,Fcamr logFC,[2]; 20 mg/kg/day vs control,1.182
same,Frs3 logFC,[2]; 20 mg/kg/day vs control,1.094
same,Ftcd logFC,[2]; 20 mg/kg/day vs control,1.086
same,Glis1 logFC,[2]; 20 mg/kg/day vs control,0.8776
same,Hao2 logFC,[2]; 20 mg/kg/day vs control,0.9855
same,Hrg logFC,[2]; 20 mg/kg/day vs control,4.888
same,Igibp1 logFC,[2]; 20 mg/kg/day vs control,2.82
same,Il1b logFC,[2]; 20 mg/kg/day vs control,−3.029
same,Iv1 logFC,[2]; 20 mg/kg/day vs control,−3.8887
same,Klf15 logFC,[2]; 20 mg/kg/day vs control,0.8799
same,Krt5 logFC,[2]; 20 mg/kg/day vs control,−3.044
same,Lep logFC,[2]; 20 mg/kg/day vs control,−5.905
same,Lgals12 logFC,[2]; 20 mg/kg/day vs control,−2.536
same,Lhx1 logFC,[2]; 20 mg/kg/day vs control,0.9258
same,Ly6d logFC,[2]; 20 mg/kg/day vs control,−3.377
same,Morn2 logFC,[2]; 20 mg/kg/day vs control,0.9375
same,Nat81 logFC,[2]; 20 mg/kg/day vs control,−3.263
same,Ndrg1 logFC,[2]; 20 mg/kg/day vs control,0.8946
same,Npas2 logFC,[2]; 20 mg/kg/day vs control,1.012
same,Otop1 logFC,[2]; 20 mg/kg/day vs control,−5.808
same,Paral1 logFC,[2]; 20 mg/kg/day vs control,−5.133
same,Pfn3 logFC,[2]; 20 mg/kg/day vs control,0.934
same,Plekhs1 logFC,[2]; 20 mg/kg/day vs control,−3.661
same,Prkar2b logFC,[2]; 20 mg/kg/day vs control,−2.468
same,Prodh logFC,[2]; 20 mg/kg/day vs control,0.8987
same,Pvalb logFC,[2]; 20 mg/kg/day vs control,0.9441
same,Ren1 logFC,[2]; 20 mg/kg/day vs control,1.117
same,Slc6a19 logFC,[2]; 20 mg/kg/day vs control,0.9585
same,Slc34a3 logFC,[2]; 20 mg/kg/day vs control,0.9345
same,Sprr2a3 logFC,[2]; 20 mg/kg/day vs control,−4.403
same,Tmem37 logFC,[2]; 20 mg/kg/day vs control,0.9439
same,Tns4 logFC,[2]; 20 mg/kg/day vs control,−2.381
same,ET1 gene signature genes downregulated,[2]; [5],"Nfatc1, Grk5, Klf2, Cav1, Pparg, Itga5, Myc, Ednra, Sell, Hgf, Mmp2, Edn1, Syk, Fos, and IL-1b"
same,ET1 gene signature genes upregulated,[2]; [5],"Ccdn1, Cat, Ppara, Map2k2, Hoxa9, Agt, and Egfr"
same,Ednra and Ednrb gene expression,[2]; 30 mg/kg/day,downregulated
same,number of downregulated genes,[2]; 30 mg/kg/day versus control,768 genes
same,number of upregulated genes,[2]; 30 mg/kg/day versus control,910 genes
same,1700003D09Rik logFC,[2]; 30 mg/kg/day vs control,−2.087
same,1700101I11Rik logFC,[2]; 30 mg/kg/day vs control,1.613
same,A530016L24Rik logFC,[2]; 30 mg/kg/day vs control,−3.0348
same,Adamts17 logFC,[2]; 30 mg/kg/day vs control,−3.191
same,Adcy2 logFC,[2]; 30 mg/kg/day vs control,−2.327
same,Ankef1 logFC,[2]; 30 mg/kg/day vs control,−2.3582
same,Arhgap36 logFC,[2]; 30 mg/kg/day vs control,−2.908
same,Atf3 logFC,[2]; 30 mg/kg/day vs control,−2.22
same,Bhmt logFC,[2]; 30 mg/kg/day vs control,4.173
same,Calb1 logFC,[2]; 30 mg/kg/day vs control,1.211
same,Ccl20 logFC,[2]; 30 mg/kg/day vs control,−2.471
same,Chadl logFC,[2]; 30 mg/kg/day vs control,1.41
same,Clec2h logFC,[2]; 30 mg/kg/day vs control,1.215
same,Clec4d logFC,[2]; 30 mg/kg/day vs control,−4.65
same,Cxcl2 logFC,[2]; 30 mg/kg/day vs control,−2.6664
same,Cyp27b1 logFC,[2]; 30 mg/kg/day vs control,1.35
same,E030018B13Rik logFC,[2]; 30 mg/kg/day vs control,−2.373
same,Ebf2 logFC,[2]; 30 mg/kg/day vs control,−2.386
same,Ethe1 logFC,[2]; 30 mg/kg/day vs control,1.211
same,Fam163b logFC,[2]; 30 mg/kg/day vs control,−2.785
same,Fat3 logFC,[2]; 30 mg/kg/day vs control,−2.067
same,Frs3 logFC,[2]; 30 mg/kg/day vs control,1.176
same,G6pc logFC,[2]; 30 mg/kg/day vs control,1.207
same,Gm20026 logFC,[2]; 30 mg/kg/day vs control,−2.0755
same,Igfbp1 logFC,[2]; 30 mg/kg/day vs control,3.447
same,Igkv3-5 logFC,[2]; 30 mg/kg/day vs control,−2.722
same,Il1b logFC,[2]; 30 mg/kg/day vs control,−2.263
same,Kcnk2 logFC,[2]; 30 mg/kg/day vs control,−2.431
same,Kif1a logFC,[2]; 30 mg/kg/day vs control,−2.108
same,Misp3 logFC,[2]; 30 mg/kg/day vs control,1.307
same,Mogat2 logFC,[2]; 30 mg/kg/day vs control,1.285
same,Ndrg1 logFC,[2]; 30 mg/kg/day vs control,1.197
same,Nepn logFC,[2]; 30 mg/kg/day vs control,1.291
same,Nkx3-1 logFC,[2]; 30 mg/kg/day vs control,1.294
same,Npas2 logFC,[2]; 30 mg/kg/day vs control,1.394
same,Pgam2 logFC,[2]; 30 mg/kg/day vs control,1.24
same,Plch2 logFC,[2]; 30 mg/kg/day vs control,−2.423
same,Pvalb logFC,[2]; 30 mg/kg/day vs control,1.389
same,Ren1 logFC,[2]; 30 mg/kg/day vs control,1.531
same,Rnf182 logFC,[2]; 30 mg/kg/day vs control,−2.817
same,S100g logFC,[2]; 30 mg/kg/day vs control,1.296
same,Slc6a19 logFC,[2]; 30 mg/kg/day vs control,1.238
same,Slc16a1 logFC,[2]; 30 mg/kg/day vs control,1.178
same,Slc34a3 logFC,[2]; 30 mg/kg/day vs control,1.436
same,Stx1b logFC,[2]; 30 mg/kg/day vs control,−2.245
same,Tns4 logFC,[2]; 30 mg/kg/day vs control,−2.443
same,Wnt10a logFC,[2]; 30 mg/kg/day vs control,−2.071
same,Xirp2 logFC,[2]; 30 mg/kg/day vs control,−2.619
same,ET1 gene signature genes downregulated,[2]; [6],"Ednrb, Myc, Mllt3, Hdac7, Ednra, Itga5, Grk5, Pparg, Klf2, Hgf, Mmp2, Sell, Sphk1, Fos, Syk, Edn1, and IL-1b"
same,ET1 gene signature genes upregulated,[2]; [6],"Ccnd1, Agt, Cat, Map2k2, Hoxa9, and Ppara"
same,ET1 (End1) gene expression,"[2]; all three doses (10, 20, 30 mg/kg/day)",downregulated
same,genes overlapping with human specific Atra/ET1 gene signature,[2]; atrasentan treated mice,53 of 60
same,IC50,[3],0.65 nM
